Activity calls are given as the source filed them. No cut-off for these calls is given here.
Tests used:
A549 [1] = assay: Selectivity index, ratio of IC50 for human BEAS2B cells to IC50 for human A549 cells; format: functional
A549 [2] = assay: Induction of apoptosis in human A549 cells assessed as early apoptotic cells at 10 uM after 6 hrs by Annexin-V-FITC/Propidium iodide staining based flow cytometric analysis (reference value: 3.83 +/- 0.49%); format: functional
A549 [3] = assay: Induction of apoptosis in human A549 cells assessed as late apoptotic cells at 10 uM after 6 hrs by Annexin-V-FITC/Propidium iodide staining based flow cytometric analysis (reference value: 0.41 +/- 0.19%); format: functional
A549 [4] = assay: Induction of apoptosis in human A549 cells assessed as early apoptotic cells at 10 uM after 48 hrs by Annexin-V/Propidium iodide dual staining based flow cytometric analysis (reference value: 3.53 +/- 0.89%); format: functional
A549 [5] = assay: Cell cycle arrest in human A549 cells assessed as accumulation at G0/G1 phase at 5 uM by propidium iodide staining based flow cytometric analysis (reference value: 63.82 +/- 2.66%); format: functional
A549 [6] = assay: Induction of apoptosis in human A549 cells assessed as upregulation of caspase-3 expression after 48 hrs by Western blot analysis; format: functional, cell-based
A549 [7] = assay: Induction of apoptosis in human A549 cells assessed as upregulation of caspase-8 expression after 48 hrs by Western blot analysis; format: functional, cell-based
[8] = target: RAF proto-oncogene serine/threonine-protein kinase (Homo sapiens) (UniProt P04049); assay: Inhibition of C-Raf in human A549 cells after 48 hrs by Western blot analysis; format: cell-based
Chain of RAF proto-oncogene serine/threonine-protein kinase (Homo sapiens) (P04049 whole entry): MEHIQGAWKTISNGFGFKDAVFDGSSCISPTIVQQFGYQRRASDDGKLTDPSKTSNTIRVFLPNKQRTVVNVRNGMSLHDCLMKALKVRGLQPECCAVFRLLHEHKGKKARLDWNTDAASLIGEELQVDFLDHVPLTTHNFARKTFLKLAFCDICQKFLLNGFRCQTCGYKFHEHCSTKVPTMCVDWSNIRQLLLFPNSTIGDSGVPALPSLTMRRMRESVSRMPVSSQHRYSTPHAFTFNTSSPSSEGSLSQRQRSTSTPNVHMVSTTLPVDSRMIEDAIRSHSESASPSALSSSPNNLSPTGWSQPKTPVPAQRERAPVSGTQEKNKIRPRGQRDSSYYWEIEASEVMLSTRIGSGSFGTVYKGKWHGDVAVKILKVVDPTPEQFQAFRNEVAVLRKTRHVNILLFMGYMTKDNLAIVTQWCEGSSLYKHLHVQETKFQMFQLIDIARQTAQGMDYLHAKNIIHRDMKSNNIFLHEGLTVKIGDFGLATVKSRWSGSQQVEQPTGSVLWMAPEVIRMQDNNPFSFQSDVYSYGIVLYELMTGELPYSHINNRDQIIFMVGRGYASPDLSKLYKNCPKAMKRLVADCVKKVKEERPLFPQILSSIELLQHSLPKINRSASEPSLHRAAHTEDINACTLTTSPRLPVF

[9] = target: Serine/threonine-protein kinase B-raf (Homo sapiens) (UniProt P15056); assay: Inhibition of B-Raf in human A549 cells at 5 to 20 uM after 48 hrs by Western blot analysis; format: cell-based
Chain of Serine/threonine-protein kinase B-raf (Homo sapiens) (P15056 whole entry): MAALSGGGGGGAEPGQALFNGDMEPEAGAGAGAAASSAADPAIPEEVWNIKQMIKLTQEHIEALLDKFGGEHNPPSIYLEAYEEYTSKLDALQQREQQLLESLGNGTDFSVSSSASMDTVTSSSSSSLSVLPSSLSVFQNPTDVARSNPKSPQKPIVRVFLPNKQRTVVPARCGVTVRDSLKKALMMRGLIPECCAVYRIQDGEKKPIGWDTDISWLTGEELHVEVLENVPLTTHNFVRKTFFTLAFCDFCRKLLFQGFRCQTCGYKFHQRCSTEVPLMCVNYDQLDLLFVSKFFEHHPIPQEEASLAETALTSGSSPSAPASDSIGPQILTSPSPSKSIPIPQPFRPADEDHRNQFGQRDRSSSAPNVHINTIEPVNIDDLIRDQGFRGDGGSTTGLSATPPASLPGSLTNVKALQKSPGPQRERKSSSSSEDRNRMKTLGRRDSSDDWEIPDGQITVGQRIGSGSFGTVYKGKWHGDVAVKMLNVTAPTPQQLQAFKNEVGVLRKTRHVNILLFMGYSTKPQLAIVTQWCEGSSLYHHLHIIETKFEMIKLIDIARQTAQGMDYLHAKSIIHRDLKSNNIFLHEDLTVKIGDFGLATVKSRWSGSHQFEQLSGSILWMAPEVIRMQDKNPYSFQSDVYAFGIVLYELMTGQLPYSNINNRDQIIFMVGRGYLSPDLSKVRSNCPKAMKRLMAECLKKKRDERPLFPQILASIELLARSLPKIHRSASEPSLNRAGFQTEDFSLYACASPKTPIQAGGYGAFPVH

[10] = target: RAF proto-oncogene serine/threonine-protein kinase (Homo sapiens) (UniProt P04049); assay: Inhibition of c-Raf in human A549 cells assessed as downregulation of ERK1/2 expression after 48 hrs by Western blot analysis; format: cell-based
A549 [11] = assay: Cell cycle arrest in human A549 cells assessed as accumulation at S phase at 5 uM by propidium iodide staining based flow cytometric analysis (reference value: 23.41 +/- 2.19%); format: functional
A549 [12] = assay: Cell cycle arrest in human A549 cells assessed as accumulation at G2/M phase at 10 uM by propidium iodide staining based flow cytometric analysis (reference value: 12.77 +/- 1.55%); format: functional
A549 [13] = assay: Cell cycle arrest in human A549 cells assessed as accumulation at G2/M phase at 5 uM by propidium iodide staining based flow cytometric analysis (reference value: 12.77 +/- 1.55%); format: functional
A549 [14] = assay: Disruption of mitochondrial membrane potential in human A549 cells at 10 uM by JC-1 staining based laser scanning confocal microscopic analysis; format: functional, cell-based
A549 [15] = assay: Disruption of mitochondrial membrane potential in human A549 cells assessed as ratio of green to red fluorescence intensity at 20 uM after 24 hrs by JC-1 staining based flow cytometric analysis; format: functional

inhibition [8]: Dose-dependent effect
inhibition [9]: inactive
inhibition [10]: Dose-dependent effect
Structure (SMILES): COc1cc2ncnc(NCc3cccc(NC(=O)Nc4ccc(C(C)(C)C)cc4)c3)c2cc1OC
Ratio IC50 (A549 [1]): >5
Activity (A549 [2]): 12.2%
Activity (A549 [3]): 5.4%
Activity (A549 [4]): 1.83%
Activity (A549 [5]): 66.29%
Activity (A549 [6]): Dose-dependent effect
Activity (A549 [7]): Dose-dependent effect
Activity (A549 [11]): 20.28%
Activity (A549 [12]): 7.65%
Activity (A549 [13]): 13.43%
Activity (A549 [14]): Active
Ratio (A549 [15]): 125

Source: ChEMBL document CHEMBL3739323, “Design, synthesis, and biological evaluation of novel quinazolinyl-diaryl urea derivatives as potential anticancer agents” (Eur J Med Chem, 2016)
